{"source": "patent US7531713B2", "about": "“Assay for toxin induced neuronal degeneration and viability in C. elegans” (Vanderbilt University, priority 2001, dated 2009)", "key": {"[1]": {"target": "T1, CeDAT (Caenorhabditis elegans, UniProt Q03614)", "T1 sequence (Q03614 1-615)": "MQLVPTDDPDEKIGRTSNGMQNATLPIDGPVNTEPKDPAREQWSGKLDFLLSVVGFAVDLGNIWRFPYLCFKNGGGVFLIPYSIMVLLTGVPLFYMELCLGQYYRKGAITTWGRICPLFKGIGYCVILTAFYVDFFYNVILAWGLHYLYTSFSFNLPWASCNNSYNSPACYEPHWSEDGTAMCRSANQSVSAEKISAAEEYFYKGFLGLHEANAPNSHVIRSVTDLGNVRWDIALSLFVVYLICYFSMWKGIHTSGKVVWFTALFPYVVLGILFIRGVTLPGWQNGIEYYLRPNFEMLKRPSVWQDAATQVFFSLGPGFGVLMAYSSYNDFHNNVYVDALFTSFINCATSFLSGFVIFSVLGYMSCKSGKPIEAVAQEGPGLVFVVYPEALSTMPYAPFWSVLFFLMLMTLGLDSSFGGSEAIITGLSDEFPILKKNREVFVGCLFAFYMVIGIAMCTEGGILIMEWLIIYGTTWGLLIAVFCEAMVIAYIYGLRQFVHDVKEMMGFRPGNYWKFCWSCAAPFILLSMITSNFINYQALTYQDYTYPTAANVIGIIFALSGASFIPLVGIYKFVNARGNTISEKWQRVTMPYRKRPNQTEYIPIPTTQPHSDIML", "settings": "mammalian cells expressing CeDAT, cited from earlier work; for Sensitivity of CeDAT-mediated DA transport to antagonists/substrates: potencies comparable to human DAT"}, "[2]": {"tested_on": "C. elegans DA neurons", "test": "6-OHDA assay: GFP signal in DA neurons of Pdat-1::GFP transgenic worms", "format": "in vivo", "settings": "for Protection against 6-OHDA toxicity (GFP signal in DA neurons): coincubated with 6-OHDA, 10 mM test substance", "description": "Synchronized cultures of nematodes were prepared by collecting gravid worms from one or two 100 mm 8P/NA22 plates, washing them 2 times in approximately 10 mls dH2O (2,000 rpm for 2 min), and incubating them in alkaline hypochlorite for 7-10 min. essentially as described (Emmons et al., 1979; Epstein and Shakes, 1995). Following the 17-24 hour incubation in M9 to obtain the synchronized L1's, the worms were washed once in 10 mls dH2O, spread on 8P/NA22 plates and incubated at 24° C. for 25-29 hours. The L3 larvae were collected, washed once or twice in dH2O, and added to the assay mix (to a final OD600 worms of 0.1-0.2) containing 10 mM ascorbic acid containing 10 or 50 mM 6-hydroxydopamine +/−10 mM d-amphetamine or 1 mM imipramine. The assay mix (1-2 mls) was incubated for 1 hour at 24° C., and mixed gently every 15 min. The worms were then washed in 0.5-1 ml dH2O as above and spread on NGM/OP50 plates. The worms were examined and scored 40-80 hours post-6-OHDA exposure on 2% agarose pads, using 2% NaN3 to immobilize them. For electron microscopy, the worms are fixed approximately 60 hours following exposure to 6-OHDA.\nScoring of the CEPs were performed by applying approximately 50-60 worms on the agar pad, and examined under a Zeiss M2 fluorescent dissecting scope. All 4 CEP dendrites were examined in each worm and the GFP fluorescence within the dendrites followed from the nerve ring to the tip of the nose. If any part of the dendrite was absent, the worm was considered to have altered CEPs. The DA neurons were examined in living animals using a Zeiss Axioskop with a planApo 40 and 63× objective and a Zeiss LSM410 confocal laser-scanning microscope.\nBriefly, the worms are exposed to the neurotoxin (or any other candidate substance) dissolved in a liquid suspension prior to being replated on a solid plate.\nExposure to toxins is carried out by transferring the worms to a solution of water containing 10 mM Ascorbic Acid and 10-50 mM 6OHDA in a final volume of 600 μl. The worms are incubated for 1 hour at 22-24° C. with mixing in silica coated tubes. The exposing is stopped by dilution with 1 ml of water. The tube is then pulsed at 2000 rpm for 2 minutes, resuspended in water and the worms are spread on N6M plates ([…]) coated with OP50 E. coli, which the worms feed on."}, "[3]": {"tested_on": "ASI chemosensory neurons", "test": "6-OHDA exposure of ASI chemosensory neurons with or without transferred DAT-1", "format": "in vivo, C. elegans", "excerpt": "FIGS. 6A, 6B, 6C & 6D. Transfer of the DAT gene product sensitizes non-DA neurons to 6-OHDA. (FIG. 6A), ASI chemosensory neurons made transgenic for a PDAF-7::GFP reporter to reveal these cells and their processes. (FIG. 6B), Worms in FIG. 6A treated with 6-OHDA. […] (FIG. 6C), A transgenic line where PDAF7::DAT1:GFP translational fusion is expressed in the ASI neurons, brining DAT-protein to these cells. (FIG. 6D), Animals in C, exposed to 6-OHDA."}}, "note": "Entries after “also recorded” stand apart in the source; their conditions may differ.", "data": [{"smiles": "CN(C)CCCN1c2ccccc2CCc2ccccc21", "note": "[imipramine]", "values": [{"measurement": "Sensitivity of CeDAT-mediated DA transport to antagonists/substrates", "setting": "[1]", "result": "inhibited"}, {"measurement": "Protection against 6-OHDA toxicity (GFP signal in DA neurons)", "setting": "[2]", "result": "prevents visible evidence of 6-OHDA toxicity"}]}, {"smiles": "NCCc1cc(O)c(O)cc1O", "note": "[6-OHDA, 6-hydroxydopamine]", "values": [{"measurement": "Effect of 6-OHDA on ASI neurons expressing DAT-1", "setting": "[3]; PDAF7::DAT1:GFP translational fusion line (FIG. 6D)", "result": "conferred 6-OHDA sensitivity"}, {"measurement": "Effect of 6-OHDA on ASI neurons lacking DAT-1", "setting": "[3]; PDAF-7::GFP reporter line (FIG. 6B)", "result": "little or no effect"}, {"measurement": "Effect of 6-OHDA on GFP signal in DA neurons", "setting": "[2]; 10 mM 6-OHDA for 1 hr, visualized 72 hrs later via confocal microscopy", "result": "various stages of apparent degeneration are evident"}, {"measurement": "Effect of 6-OHDA on DA neurons / reporter expression", "setting": "[2]; 10-50 mM 6-OHDA, 1 hour exposure, general statements", "result": "selectively degraded; also recorded: loss of reporter expression"}, {"measurement": "Neuronal sensitivity to 6-OHDA as a function of time of exposure, dat-1 deletion strain", "setting": "[2]; dat-1 mutant line (FIG. 5E)", "result": "protected"}, {"measurement": "Effect of 6-OHDA on GFP signal in dat-1 deleted strain", "setting": "[2]; reporter transgenic line produced in a dat-1 deleted strain (FIG. 5D)", "result": "failure of toxin to effect loss of GFP signal"}, {"measurement": "Neuronal sensitivity to 6-OHDA as a function of time of exposure", "setting": "[2]; wildtype reporter line, CEP neurons (FIG. 5E)", "result": "time dependent loss of CEP neurons"}]}, {"smiles": "NCCc1ccc(O)c(O)c1", "note": "[DA, Dopamine]", "values": [{"measurement": "Km", "setting": "[1]; read-out: Km of Na+- and Cl--dependent DA transport", "result": 1200, "unit": "nM"}]}, {"smiles": "CNCCC(Oc1ccccc1OC)c1ccccc1", "note": "(stereo not shown) [nisoxetine]", "values": [{"measurement": "Sensitivity of CeDAT-mediated DA transport to antagonists/substrates", "setting": "[1]", "result": "inhibited"}]}, {"smiles": "C[C@H](N)Cc1ccccc1", "note": "[amphetamine, d-amphetamine]", "values": [{"measurement": "Sensitivity of CeDAT-mediated DA transport to antagonists/substrates", "setting": "[1]", "result": "sensitive"}, {"measurement": "Protection against 6-OHDA toxicity (GFP signal in DA neurons)", "setting": "[2]", "result": "prevents visible evidence of 6-OHDA toxicity"}]}]}
